Assay results reported in patent US20200181284A1, “EPIGENETIC INHIBITORS FOR SENSITIZING HEMATOLOGIC OR OTHER MALIGNANCIES TO GLUCOCORTICOID THERAPY” (UNIVERSITY OF SOUTHERN CALIFORNIA, priority 2017, published 2020).

Assays:
[1] = test system: NALM6 cells; assay: Cell death assay (Presto Blue, 72 h) with dex plus inhibitor; assay type: cell-based, human
Description: Cells were plated in CellStar low evaporation lid 96-well round-bottom plate at a density of 100,000 cells/ml. Directly after plating, cells were treated in triplicate with serial dilutions of dexamethasone or vehicle control (0.1% ethanol). After 72 h, cell viability of each well was analyzed in duplicate using the Presto Blue Assay Reagent (Life Technologies). Fluorescence was measured and data were analyzed with Prism6 software.
FIGS. 40A, 40B, 40C, 40D-1, 40D-2, 40D-3, and 40D-4 show Aurora kinase B inhibitors sensitizing NALM6 cells to GC-induced cell death. As shown in FIGS. 40A and 40B, NALM6 cells were treated with the indicated dex concentration in addition to 0.75 μM ZM447439 (FIG. 40A), 16 nM AZD2811 (FIG. 40B), or equivalent volume of vehicle DMSO for 72 h, and cell survival was measured by a fluorescence metabolic assay. In each condition, the value measured with dex was normalized to the fluorescence value measured with ethanol. Percentage of survival is shown as the mean±SEM of 4 independent experiments and p-values for individual dex concentrations were calculated using a paired t-test. *p≤0.05, **p≤0.01, * * *p≤0.001. F-test comparing the two curves: p≤0.001. Insets show the EC50s that were calculated as the concentration at which half the cells remained alive, compare to vehicle controls. Error bars depict the SEM of 4 independent experiments and p-values were calculated to compare AURKB inhibitor treatment to DMSO using a paired t-test ** p≤0.01, * * *p≤0.001. […] The indicated proteins were then examined by immunoblot. As shown in FIGS. 40D-1, 40D-2, 40D-3, and 40D-4, NALM6 cells pre-treated with AZD2811 (16 nM) or DMSO for 24 h, were then treated for 8 h with 100 nM dex or ethanol. mRNA levels for the indicated GR target genes were measured by RT-qPCR and normalized to β-actin mRNA levels.
FIGS. 48A, 48B, 48C, 48D, 48E, and 48F show the effect of AURKB inhibitors on EHMT2 phosphorylation and dex-induced cell death. […] In each condition, the value measured with dex was normalized to the fluorescence value measured with ethanol. Percentage of survival is shown as the mean±SEM of 4 independent experiments and p-values for individual dex concentrations were calculated using a paired t-test. *p≤0.05, **p≤0.01, * * *p≤0.001. F-test comparing the two curves: p≤0.001. EC50s were calculated as the concentration at which half the cells remained alive, compare to vehicle controls. Error bars depict the SEM of 4 independent experiments and p-value was calculated to compare ZM treatment to DMSO using a paired t-test **p≤0.01, * * *p≤0.001. […] EC50s were calculated as the concentration at which half the cells remained alive, compare to vehicle controls. Error bars depict the SEM of 4 independent experiments and p-value was calculated to compare alisertib treatment to DMSO using a paired t-test. […] (E-F) RCH-ACV cells were treated with the indicated dex concentration in addition to 0.75 μM ZM447439 (FIG. 48E), 16 nM AZD2811 (FIG. 48F), or DMSO for 72 h, and cell survival was measured by a fluorescence metabolic assay. In each condition, the value measured with dex was normalized to the fluorescence value measured with ethanol. Percentage of survival is shown as the mean±SEM of 5 individual experiments and the p-value for each dex concentration was calculated using a paired t-test. *p≤0.05, **p≤0.01, * * *p≤0.001. F-test comparing the two curves: p≤0.001.
FIGS. 55A, 55B, and 55C show JIB-04 enhances GC-induced death of B-ALL cell line NALM6.

[2] = test system: G9a and GLP coactivator function with GR; assay: Transient MMTV-LUC luciferase reporter gene assay in CV-1 cells (GR, GRIP1, G9a or GLP); assay type: cell-based, human
Description: CV-1 cells were plated in hormone-free medium with 5% charcoal-stripped serum in 24-well plates the day before transfection. Cells were transfected using Lipofectamine 2000 (Invitrogen) with the indicated plasmids according to the manufacturer's protocol. After transfection, the cells were grown in hormone-free medium for 48 h in the presence or absence of 100 nM dex. Cell lysis and luciferase assays on cell extracts were performed with Promega luciferase assay kit. An aliquot of the cell lysate was reserved for immunoblot analysis of input samples. The results were normalized as indicated and presented as the mean±SEM of at least four independent experiments.
The results as shown in FIGS. 20A-20D generally highlight that G9a and GLP PTMs regulate their coactivator function. For FIG. 20A, CV-1 cells were transfected with MMTV-LUC reporter plasmid (200 ng) and plasmids encoding GR (1 ng), Grip1 (100 ng) and HA-labeled full length (FL) hG9a wild type or K185A or K185R mutants (150 or 400 ng) as indicated. Cells were grown with 100 nM dex or the equivalent amount of ethanol for 48 h and assayed for luciferase activity. Relative luciferase units are normalized to sample 3 and represent mean±SEM for eight independent experiments. p-value was calculated using a paired t-test. *p≤0.05, **p≤0.01. Whole-cell extracts were analyzed for G9a expression by immunoblot with anti-HA antibody. For FIG. 20B, transient reporter gene assays were performed as in A with HA-labeled hGLP WT or hGLP K205A (150 or 400 ng) as indicated. Relative luciferase units are normalized to sample 3 and represent mean±SEM for six independent experiments. p-value was calculated using a paired t-test. *p≤0.05. […] Relative luciferase units are normalized to sample 3 and represent mean±SEM for four independent experiments. p-value was calculated using a paired t-test. * * *p≤0.001. […] Relative luciferase units are normalized to sample 3 and represent mean±SEM for four independent experiments. p-value was calculated using a paired t-test. *p≤0.05. […]

SMILES	GC-induced death of NALM6 cells ([1]; 72 hours with various dex concentrations plus KDM inhibitor)	dex-induced expression of the reporter gene ([2]; GR, GRIP1 and wild type G9a)	dex-induced expression of the reporter gene ([2]; mutant G9a with the methylation site mutated from lysine to arginine)	sensitivity of NALM6 cells to dex-induced apoptosis ([1]; 0.75 µM ZM447439 stronger effect than 0.625 μM, 72 h)	coactivator function of G9a and GLP, in cooperation with GRIP1 ([2]; 100 nM dex and 2 μM ZM447439, 48 h)
Clc1ccc(N/N=C(\c2ccccc2)c2ccccn2)nc1 [JIB-04, 5-chloro-N-[(E)-[phenyl(pyridin-2-yl)methylidene]amino]pyridin-2-amine]	effectively enhanced	enhanced	no effect	–	–
COc1cc2c(Nc3ccc(NC(=O)c4ccccc4)cc3)ncnc2cc1OCCCN1CCOCC1 [ZM447439, N-[4-[[6-methoxy-7-(3-morpholin-4-ylpropoxy)quinazolin-4-yl]amino]phenyl]benzamide]	–	–	–	significantly sensitized	significantly enhanced
